Converted amounts (≈) assume the structure as drawn.
Key:
[1] = system: Mycobacterium leprae; experiment: Anti-leprotic activity against Mycobacterium leprae infected in BALB/c mouse assessed as time delay in bacterial multiplication in footpad at 0.011 g/100g of diet administered via feed starting 60 or 75 day post infection up to 90 days by Shepard's kinetic method; assay type: functional
[2] = system: Mycobacterium leprae; experiment: Anti-leprotic activity against Mycobacterium leprae infected in BALB/c mouse assessed as time delay in bacterial multiplication in footpad at 0.012 g/100g of diet administered via feed starting 60 or 75 day post infection up to 90 days by Shepard's kinetic method; assay type: functional
[3] = system: Mycobacterium leprae; experiment: Anti-leprotic activity against Mycobacterium leprae infected in BALB/c mouse assessed as time delay in bacterial multiplication in footpad at 0.0045 g/100g of diet administered via feed starting 60 or 75 day post infection up to 90 days by Shepard's kinetic method; assay type: functional
[4] = system: Mycobacterium leprae; experiment: Anti-leprotic activity against Mycobacterium leprae infected in BALB/c mouse assessed as time delay in bacterial multiplication in footpad at 0.008 g/100g of diet administered via feed starting 60 or 75 day post infection up to 90 days by Shepard's kinetic method; assay type: functional
[5] = system: Enterococcus faecalis; experiment: Antimicrobial activity against Enterococcus faecalis ATCC 29212 by broth microdilution assay; assay type: functional
[6] = system: Staphylococcus aureus; experiment: Antimicrobial activity against Staphylococcus aureus ATCC 25923 by broth microdilution assay; assay type: functional
[7] = system: Enterococcus faecalis; experiment: Antimicrobial activity against Enterococcus faecalis ATCC 51922 by broth microdilution assay; assay type: functional
[8] = system: Listeria monocytogenes; experiment: Antimicrobial activity against Listeria monocytogenes ATCC 1911 by broth microdilution assay; assay type: functional
[9] = system: Klebsiella pneumoniae; experiment: Antimicrobial activity against Klebsiella pneumoniae 700603 by broth microdilution assay; assay type: functional
[10] = system: Pseudomonas aeruginosa; experiment: Antimicrobial activity against Pseudomonas aeruginosa ATCC 27853 by broth microdilution assay; assay type: functional
[11] = system: Escherichia coli; experiment: Antimicrobial activity against Escherichia coli ATCC 35218 by broth microdilution assay; assay type: functional
[12] = system: Escherichia coli; experiment: Antimicrobial activity against Escherichia coli ATCC 25922 by broth microdilution assay; assay type: functional
[13] = system: Mycobacterium tuberculosis; experiment: Antitubercular activity against Mycobacterium tuberculosis H37Rv ATCC 27294 incubated for 7 days by microplate alamar blue assay; assay type: functional; conditions: H37Rv ATCC 27294, 168 h
[14] = system: Nakaseomyces glabratus; experiment: Antifungal activity against Candida glabrata; assay type: functional
[15] = system: Mycobacterium leprae; experiment: Anti-leprotic activity against Mycobacterium leprae infected in BALB/c mouse assessed as time delay in bacterial multiplication in footpad at 0.0087 g/100g of diet administered via feed starting 60 or 75 day post infection up to 90 days by Shepard's kinetic method; assay type: functional
[16] = system: Mycobacterium tuberculosis; experiment: Antitubercular activity against Mycobacterium tuberculosis H37Rv ATCC 27294 assessed as growth inhibition at 6.25 ug/ml by microplate alamar blue assay relative to control; assay type: functional
[17] = Selectivity index, ratio of IC50 for African green monkey Vero cells to MIC for antitubercular activity against Mycobacterium tuberculosis H37Rv; assay type: toxicity; conditions: Vero cells, read-out: Selectivity Index
[18] = system: Mycobacterium tuberculosis; experiment: Antitubercular activity against Mycobacterium tuberculosis H37Rv ATCC 27294 assessed as inhibition of [3H]-thymidine incorporation at 1 ug/ml relative to control; assay type: functional
[19] = system: Mycobacterium leprae; experiment: Anti-leprotic activity against Mycobacterium leprae primary cultures at 4 weeks assessed as ATP level per 10^7 cells at 0.5 mg/L measured by bioluminescence assay (reference value: 314 +/- 46 pg); assay type: functional
[20] = system: Mycobacterium leprae; experiment: Anti-leprotic activity against Mycobacterium leprae primary cultures at 4 weeks assessed as ATP level per 10^7 cells at 1.0 mg/L measured by bioluminescence assay (reference value: 314 +/- 46 pg); assay type: functional
[21] = system: Mycobacterium leprae; experiment: Anti-leprotic activity against Mycobacterium leprae primary cultures at 4 weeks assessed as ATP level per 10^7 cells at 5.0 mg/L measured by bioluminescence assay (reference value: 314 +/- 46 pg); assay type: functional
[22] = system: Mycobacterium leprae; experiment: Anti-leprotic activity against Mycobacterium leprae primary cultures at 4 weeks assessed as ATP level per 10^7 cells at 10.0 mg/L measured by bioluminescence assay (reference value: 314 +/- 46 pg); assay type: functional
[23] = system: Mycobacterium leprae; experiment: Anti-leprotic activity against Mycobacterium leprae primary cultures at 4 weeks assessed as ATP level per 10^7 cells at 15.0 mg/L measured by bioluminescence assay (reference value: 314 +/- 46 pg); assay type: functional
[24] = system: Mycobacterium leprae; experiment: Anti-leprotic activity against Mycobacterium leprae primary cultures at 4 weeks assessed as ATP level per 10^7 cells at 20.0 mg/L measured by bioluminescence assay (reference value: 314 +/- 46 pg); assay type: functional
[25] = system: Mycobacterium leprae; experiment: Anti-leprotic activity against Mycobacterium leprae primary cultures at 4 weeks assessed as [3H]thymidine uptake per 5 times 10^7 cells at 0.5 mg/L (reference value: 0.95 +/- 0.01 pmol); assay type: functional
[26] = system: Mycobacterium leprae; experiment: Anti-leprotic activity against Mycobacterium leprae primary cultures at 4 weeks assessed as [3H]thymidine uptake per 5 times 10^7 cells at 1.0 mg/L (reference value: 0.95 +/- 0.01 pmol); assay type: functional
[27] = system: Mycobacterium leprae; experiment: Anti-leprotic activity against Mycobacterium leprae primary cultures at 4 weeks assessed as [3H]thymidine uptake per 5 times 10^7 cells at 5.0 mg/L (reference value: 0.95 +/- 0.01 pmol); assay type: functional
[28] = system: Mycobacterium leprae; experiment: Anti-leprotic activity against Mycobacterium leprae primary cultures at 4 weeks assessed as [3H]thymidine uptake per 5 times 10^7 cells at 10.0 mg/L (reference value: 0.95 +/- 0.01 pmol); assay type: functional
[29] = system: Mycobacterium leprae; experiment: Anti-leprotic activity against Mycobacterium leprae primary cultures at 4 weeks assessed as [3H]thymidine uptake per 5 times 10^7 cells at 15.0 mg/L (reference value: 0.95 +/- 0.01 pmol); assay type: functional
[30] = system: Mycobacterium leprae; experiment: Anti-leprotic activity against Mycobacterium leprae primary cultures at 4 weeks assessed as [3H]thymidine uptake per 5 times 10^7 cells at 20.0 mg/L (reference value: 0.95 +/- 0.01 pmol); assay type: functional
[31] = system: Mycobacterium leprae; experiment: Anti-leprotic activity against Mycobacterium leprae subcultures at 4 weeks assessed as ATP level per 10^7 cells at 0.5 mg/L measured by bioluminescence assay (reference value: 462 +/- 64 pg); assay type: functional
[32] = system: Mycobacterium leprae; experiment: Anti-leprotic activity against Mycobacterium leprae subcultures at 4 weeks assessed as ATP level per 10^7 cells at 1.0 mg/L measured by bioluminescence assay (reference value: 462 +/- 64 pg); assay type: functional
[33] = system: Mycobacterium leprae; experiment: Anti-leprotic activity against Mycobacterium leprae subcultures at 4 weeks assessed as ATP level per 10^7 cells at 5.0 mg/L measured by bioluminescence assay (reference value: 462 +/- 64 pg); assay type: functional
[34] = system: Mycobacterium leprae; experiment: Anti-leprotic activity against Mycobacterium leprae subcultures at 4 weeks assessed as ATP level per 10^7 cells at 10.0 mg/L measured by bioluminescence assay (reference value: 462 +/- 64 pg); assay type: functional
[35] = system: Mycobacterium leprae; experiment: Anti-leprotic activity against Mycobacterium leprae subcultures at 4 weeks assessed as ATP level per 10^7 cells at 15.0 mg/L measured by bioluminescence assay (reference value: 462 +/- 64 pg); assay type: functional
[36] = system: Mycobacterium leprae; experiment: Anti-leprotic activity against Mycobacterium leprae subcultures at 4 weeks assessed as ATP level per 10^7 cells at 20.0 mg/L measured by bioluminescence assay (reference value: 462 +/- 64 pg); assay type: functional
[37] = system: Mycobacterium leprae; experiment: Anti-leprotic activity against Mycobacterium leprae subcultures at 4 weeks assessed as [3H]thymidine uptake per 5 times 10^7 cells at 0.5 mg/L (reference value: 1.28 +/- 0.14 pmol); assay type: functional
[38] = system: Mycobacterium leprae; experiment: Anti-leprotic activity against Mycobacterium leprae subcultures at 4 weeks assessed as [3H]thymidine uptake per 5 times 10^7 cells at 1.0 mg/L (reference value: 1.28 +/- 0.14 pmol); assay type: functional
[39] = system: Mycobacterium leprae; experiment: Anti-leprotic activity against Mycobacterium leprae subcultures at 4 weeks assessed as [3H]thymidine uptake per 5 times 10^7 cells at 5.0 mg/L (reference value: 1.28 +/- 0.14 pmol); assay type: functional
[40] = system: Mycobacterium leprae; experiment: Anti-leprotic activity against Mycobacterium leprae subcultures at 4 weeks assessed as [3H]thymidine uptake per 5 times 10^7 cells at 10.0 mg/L (reference value: 1.28 +/- 0.14 pmol); assay type: functional
[41] = system: Mycobacterium leprae; experiment: Anti-leprotic activity against Mycobacterium leprae subcultures at 4 weeks assessed as [3H]thymidine uptake per 5 times 10^7 cells at 15.0 mg/L (reference value: 1.28 +/- 0.14 pmol); assay type: functional
[42] = system: Mycobacterium leprae; experiment: Anti-leprotic activity against Mycobacterium leprae subcultures at 4 weeks assessed as [3H]thymidine uptake per 5 times 10^7 cells at 20.0 mg/L (reference value: 1.28 +/- 0.14 pmol); assay type: functional
[43] = system: Mycobacterium leprae; experiment: Antimicrobial activity against Mycobacterium leprae; assay type: functional
[44] = system: Monocyte; experiment: Antiinflammatory activity in human monocytes assessed as inhibition of LPS-induced TNFaplha production at 50 uM preincubated for 15 mins followed by LPS addition and measured after 4 hrs by ELISA relative to control; assay type: functional
[45] = Cytotoxicity against LPS-induced human monocytes assessed as cell viability at 50 uM by tryphan blue staining based assay relative to control; design: species or system Monocyte; conditions: read-out: Activity
[46] = system: Monocyte; experiment: Antiinflammatory activity in human monocytes assessed as inhibition of LPS-induced TNFaplha production preincubated for 15 mins followed by LPS addition and measured after 4 hrs by ELISA; assay type: functional, cell-based

## CC(=O)Nc1ccc(S(=O)(=O)c2ccc(NC(C)=O)cc2O)cc1
[1]
  Time: 126 days

## CC(=O)Nc1ccc(S(=O)(=O)c2ccc(NC(C)=O)cc2Cl)cc1
[2]
  Time: 85 days

## Nc1ccc([S+]([O-])c2ccc(N)cc2)cc1
[3]
  Time: 90 days

## Nc1ccc(Cc2ccc(N)cc2)cc1
[4]
  Time: <10 days

## O=[N+]([O-])c1ccc(/C=N/NC(=S)Nc2ccc(C(F)(F)F)cc2)cc1
[5]
  MIC: 100 µg/mL (≈ 271 µM)
[6]
  MIC: 400 µg/mL (≈ 1090 µM)
[7]
  MIC: 400 µg/mL (≈ 1090 µM)
[8]
  MIC: 400 µg/mL (≈ 1090 µM)
[9]
  MIC: 400 µg/mL (≈ 1090 µM)
[10]
  MIC: 400 µg/mL (≈ 1090 µM)
[11]
  MIC: 400 µg/mL (≈ 1090 µM)
[12]
  MIC: 400 µg/mL (≈ 1090 µM)
[13]
  MIC: 400 µg/mL (≈ 1090 µM)
[14]
  MIC: 200 µg/mL (≈ 543 µM)

## Nc1ccc(Sc2ccc(N)cc2)cc1 [4,4'-THIODIANILINE]
[15]
  Time: 68 days

## Fc1ccc(/C=N/NC(=S)Nc2ccc(C(F)(F)F)cc2)cc1
[5]
  MIC: 200 µg/mL (≈ 586 µM)
[6]
  MIC: 100 µg/mL (≈ 293 µM)
[7]
  MIC: 1600 µg/mL (≈ 4690 µM)
[8]
  MIC: 1600 µg/mL (≈ 4690 µM)
[9]
  MIC: 800 µg/mL (≈ 2340 µM)
[10]
  MIC: 1600 µg/mL (≈ 4690 µM)
[11]
  MIC: 1600 µg/mL (≈ 4690 µM)
[12]
  MIC: 400 µg/mL (≈ 1170 µM)
[13]
  MIC: 400 µg/mL (≈ 1170 µM)
[14]
  MIC: 200 µg/mL (≈ 586 µM)

## c1ccc(Cn2cnc3c(-c4cccs4)ncnc32)cc1
[16]
  inhibition at 6.25 µg/mL: > 90%
[17]
  selectivity ratio: > 1.6
[18]
  inhibition at 1 µg/mL: < 10%

## CCOc1cc(Cc2cnc(N)nc2N)cc(OCC)c1-n1cccc1 [EPIROPRIM]
[19]
  Activity: 325 pg
[20]
  Activity: 331 pg
[21]
  Activity: 283 pg
[22]
  Activity: 0 pg
[23]
  Activity: 0 pg
[24]
  Activity: 0 pg
[25]
  Activity: 1.12 pmol
[26]
  Activity: 1.44 pmol
[27]
  Activity: 0.73 pmol
[28]
  Activity: 0 pmol
[29]
  Activity: 0 pmol
[30]
  Activity: 0 pmol
[31]
  Activity: 0.82 pg
[32]
  Activity: 0.95 pg
[33]
  Activity: 317 pg
[34]
  Activity: 0 pg
[35]
  Activity: 0 pg
[36]
  Activity: 0 pg
[37]
  Activity: 0.413 pmol
[38]
  Activity: 0.45 pmol
[39]
  Activity: 0.88 pmol
[40]
  Activity: 0 pmol
[41]
  Activity: 0 pmol
[42]
  Activity: 0 pmol
[43]
  MIC: 10 µg/mL (≈ 28.3 µM)

## c1ccc(Cn2cnc3c(-c4ccccc4)ncnc32)cc1
[18]
  inhibition at 1 µg/mL: < 10%

## CCC1(N2C(=O)c3cccc([N+](=O)[O-])c3C2=O)C(=O)NC(=O)N(c2ccccc2)C1=O (configuration not stated)
[44]
  inhibition at 50 µM: < 10%
[45]
  viability at 50 µM: 77%
[46]
  IC50: 3 mM

— ChEMBL document CHEMBL4613212, “Insights of synthetic analogues of anti-leprosy agents” (Bioorg Med Chem, 2019)
